The source of these data is patent publication US7863449B2, “Modulators of muscarinic receptors” (Vertex Pharmaceuticals Incorporated, priority 2004, dated 2011).

For assay [1], the target named is T1, M1 muscarinic receptor (Homo sapiens, UniProt P11229).
T1 construct: expressed in transfected cells; host or cells: CHO (M1-CHO)
T1 sequence (P11229 1-460): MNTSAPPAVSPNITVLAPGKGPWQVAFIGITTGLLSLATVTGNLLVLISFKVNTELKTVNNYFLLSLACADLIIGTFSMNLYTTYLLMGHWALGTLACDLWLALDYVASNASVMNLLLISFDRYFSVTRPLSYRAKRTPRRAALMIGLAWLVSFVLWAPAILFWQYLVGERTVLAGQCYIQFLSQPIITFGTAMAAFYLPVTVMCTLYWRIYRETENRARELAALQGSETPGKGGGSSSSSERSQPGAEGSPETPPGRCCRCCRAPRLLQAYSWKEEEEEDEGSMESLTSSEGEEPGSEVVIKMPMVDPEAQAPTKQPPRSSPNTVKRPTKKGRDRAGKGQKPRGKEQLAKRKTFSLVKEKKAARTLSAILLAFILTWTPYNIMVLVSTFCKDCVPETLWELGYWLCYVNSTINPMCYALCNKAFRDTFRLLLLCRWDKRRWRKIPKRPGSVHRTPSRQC
The experiment in a line: Functional mobilization of intracellular calcium (FLIPR), M1-CHO cells. It counts as cell-based. The settings on record: for Emax: 100% efficacy is the maximum response obtained using Carbachol as a control; for M1 Activity: M1-CHO cells, FLIPR calcium mobilization. Put shortly: (§1)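 CHO cells expressing M1 or M4, loaded with Fluo-3 AM or Calcium 3 dye with 1 mM probenecid, 0.5% DMSO final. Agonist mode: compound added directly; antagonist mode: 15 min pre-incubation (or co-application) before carbachol at EC80. Fluorescence recorded 60 s on FLIPR.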
On the technique in general: Calcium flux is commonly read through the fluorescence of an indicator in the cells.

Assay [2] addresses T2, M4 muscarinic receptor (Homo sapiens, UniProt P08173).
T2 construct: expressed in transfected cells; host or cells: CHO (M4-CHO)
T2 sequence (P08173 1-479): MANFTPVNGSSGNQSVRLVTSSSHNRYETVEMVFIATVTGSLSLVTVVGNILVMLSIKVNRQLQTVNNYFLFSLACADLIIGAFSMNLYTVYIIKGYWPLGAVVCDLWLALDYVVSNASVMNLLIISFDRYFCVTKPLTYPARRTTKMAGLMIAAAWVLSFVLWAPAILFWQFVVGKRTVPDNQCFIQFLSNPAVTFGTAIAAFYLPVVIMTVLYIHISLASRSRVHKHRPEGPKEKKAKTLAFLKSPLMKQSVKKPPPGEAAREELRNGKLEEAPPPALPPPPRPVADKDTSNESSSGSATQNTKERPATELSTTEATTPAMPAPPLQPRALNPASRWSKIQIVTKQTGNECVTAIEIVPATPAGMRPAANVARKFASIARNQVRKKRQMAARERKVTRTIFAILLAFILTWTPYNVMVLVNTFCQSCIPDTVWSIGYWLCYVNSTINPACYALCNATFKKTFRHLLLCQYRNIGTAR
Description: Functional mobilization of intracellular calcium (FLIPR), M4-CHO cells. It counts as cell-based. Conditions: for Emax: 100% efficacy is the maximum response obtained using Carbachol as a control; for M4 Activity: M4-CHO cells, FLIPR calcium mobilization. The gist of the method:
as §1

Structures are written as SMILES.

Usually Emax stands for the maximal effect, on the per cent scale that the assay sets. As to `CCCOC(=O)N1C2CCC1CC(N1CCC3(CC1)CN(S(=O)(=O)CCC)Cc1ccccc13)C2` (stereo not drawn) [compound 353], in assay [1], the Emax fell in the range of 25 to 100% and the “M1 Activity” value is recorded as “+++ (activity was measured to be less than 1.0 μM)”. In assay [2], the Emax was in the range of 25 to 100% and the “M4 Activity” value is recorded as “+++ (activity was measured to be less than 1.0 μM)”.
`CC(=O)N1Cc2ccccc2C2(CCN(C3CC4CCC(C3)N4C(=O)O[C@H]3CCOC3)CC2)C1` (stereo partly drawn) [compound 354]: in assay [1], the maximum response (Emax) lay in the range of 25 to 100% and the “M1 Activity” value is “+++ (activity was measured to be less than 1.0 μM)”. Besides, in assay [2], the maximal response (Emax) is 25 to 100% and the “M4 Activity” value is recorded as “+++ (activity was measured to be less than 1.0 μM)”.
Regarding `CCOC(=O)N1C2CCC1CC(N1CCC3(CC1)CN(S(=O)(=O)c1ccc(C#N)cc1)Cc1ccccc13)C2` (stereo not drawn) [compound 355], in assay [1], the Emax fell in the range of 25 to 100% and the “M1 Activity” value is “+++ (activity was measured to be less than 1.0 μM)”. In addition, in assay [2], the Emax was 25 to 100% and the “M4 Activity” value is listed as “+++ (activity was measured to be less than 1.0 μM)”.
Regarding `CCOC(=O)N1CCC(CN2CCC3(CC2)CN(S(=O)(=O)N(C)C)Cc2ccccc23)CC1` [compound 356], in assay [1], the Emax lay within 25 to 100% and the “M1 Activity” value is reported as “+++ (activity was measured to be less than 1.0 μM)”. Moreover, in assay [2], the Emax lay within 25 to 100% and the “M4 Activity” value is recorded as “+++ (activity was measured to be less than 1.0 μM)”.
As for `CCCOC(=O)N1C2CCC1CC(N1CCC3(CC1)CN(C(C)=O)Cc1ccccc13)C2` (stereo not drawn) [compound 357], in assay [1], the maximal effect (Emax) fell in the range of 25 to 100% and the “M1 Activity” value is “+++ (activity was measured to be less than 1.0 μM)”. In assay [2], the Emax lay in the range of 25 to 100% and the “M4 Activity” value is listed as “+++ (activity was measured to be less than 1.0 μM)”.
For the molecule `CCOC(=O)N1C2CCC1CC(N1CCC3(CC1)CN(C(=O)NC1CCCCC1)Cc1ccccc13)C2` (stereo not drawn) [compound 358], in assay [1], the Emax was in the range of 25 to 100% and the “M1 Activity” value is “+++ (activity was measured to be less than 1.0 μM)”. Moreover, in assay [2], the Emax was in the range of 25 to 100% and the “M4 Activity” value is given as “+++ (activity was measured to be less than 1.0 μM)”.
